Assay results from patent publication EP4782431A1 (Suzhou Merna Therapeutics Co. Ltd, priority 2023, dated 2025).

How the values were obtained:
[1] = test system: rat models with a hand-foot skin reaction; assay: rat models with a hand-foot skin reaction; type: in vivo, SD rats
Method: After adaptive feeding for one week, SD rats (with a body weight of approximately 200 g) were randomly divided into groups with balanced body weight, with 12 rats in each group. Modeling drugs (including sorafenib, erlotinib, afatinib, and osimertinib) were respectively dissolved in a solution containing 5% of DMSO, 45% of PEG400, and 50% of H2O, and the modeling drugs were diluted to required concentrations and then administered once daily by gavage at doses shown in Table 3. After administration by gavage for 1 hour, 0.05 g of ointments containing different mass proportions of test compounds were evenly applied to left paws of the rats, a blank matrix ointment was applied to right paws of the rats to serve as a self-control, and no ointment was applied to the rats in a blank control group. After drug application, four limbs were continuously immobilized for 2 hours, then wiped with clean water to remove the residual drugs, removed from immobilization, and restored to free movement. The modeling drugs, the blank matrix ointment, and the ointments containing the test compounds were all administered once daily. After continuous administration for 30 days, the rats were euthanized, and paw plantar skin tissues were collected, fixed in 10% neutral formalin, […]. The ointments for the test compounds were prepared by mixing the compounds, white beeswax, white petrolatum, and light liquid paraffin in specific ratios (weight ratios of 3 ointments were respectively 1:18:58:23, 3:18:57:22, and 10:20:40:30). The blank matrix ointment was prepared by mixing white beeswax, white petrolatum, and light liquid paraffin in a specific ratio (weight ratio of 18:60:22).
Tissue staining: After dewaxing and rehydration, the paw plantar skin tissue sections of the above rats were stained in a hematoxylin solution for several minutes, cleaned, and placed in 1% acid alcohol for soaking until the sections faded to light blue-red. After cleaning with running water for 5 minutes, the sections were stained with eosin for 2-3 minutes, cleaned to remove excess dyes, dehydrated, then permeabilized by adding xylene for several minutes, and sealed and fixed with a neutral resin. The stratum corneum was observed under an optical microscope, and the thickness of the epidermal stratum corneum was measured using Dmetrix software.
Immunohistochemical staining: After dewaxing and hydration, the paw plantar skin tissue sections of the above rats were incubated with 3% H2O2 at room temperature for 30 minutes and blocked with 10% goat serum for 30 minutes after antigen retrieval. A KRT1 antibody (Abcam, ab93652) and a Loricrin antibody (Abcam, ab183646) were added dropwise, the sections were incubated overnight at 4°C, and an HRP secondary antibody (ZSGB-BIO, PV-6001) and a DAB kit (ZSG-BIO, ZLI9017) were added for color development. The sections were re-stained with hematoxylin, cleaned, and sealed and fixed with a neutral resin, and the expression amounts of KRT1 and Loricrin were observed under an optical microscope.
An incidence rate calculation method involves a proportion of animals in each group meeting the above criteria for determining successful modeling, that is, incidence rate = (number of successfully modeled rats/total number of rats in the group)*100%. […]

[2] = stability of crystal forms (XRPD, HPLC, color); type: physicochemical; settings: for Crystal form: XRPD
Method: A 2θ scanning angle of the sample was 3°-40°, a scanning step size was 0.02°, and a scanning time per step was 0.12 s/step. An optical tube voltage and a current were 40 kV and 40 mA, respectively. During sample preparation, an appropriate amount of the sample was placed on a sample tray and flattened with a tool such as a glass slide to ensure a smooth and even surface.
An Agilent 1260 infinityII binary pump was used for solubility and stability testing.
The stability of samples under these conditions was detected by XRPD and HPLC, and whether the samples had color changes was observed.
A certain amount of the crystal form C of the compound of formula (I) was weighed and placed in an open container at 25°C/92.5%RH for 1 week. A certain amount of the crystal form C of the compound of formula (I) was weighed and placed in a closed container at 60°C for 1 week. The stability of samples under these conditions was detected by XRPD and HPLC, and whether the samples had color changes was observed. Table 16 Stability test results of the crystal form C of the compound of formula (I)
A certain amount of the crystal form D of the compound of formula (I) was weighed and placed in an open container at 25°C/92.5%RH for 1 week. A certain amount of the crystal form D of the compound of formula (I) was weighed and placed in a closed container at 60°C for 1 week. The stability of samples under these conditions was detected by XRPD and HPLC, and whether the samples had color changes was observed. Table 17 Stability test results of the crystal form D of the compound of formula (I)
A certain amount of the crystal form E of the compound of formula (I) was weighed and placed in an open container at 25°C/92.5%RH for 1 week. A certain amount of the crystal form E of the compound of formula (I) was weighed and placed in a closed container at 60°C for 1 week. The stability of samples under these conditions was detected by XRPD and HPLC, and whether the samples had color changes was observed. Table 18 Stability test results of the crystal form E of the compound of formula (I)

[3] = modeling drug alone by gavage once daily 30 days (Sorafenib 100, Erlotinib 70, Afatinib 50, Osimertinib 60 mg/kg), no test compound

Row | Compound | successful modeling rates for the hand-foot skin reaction ([1]; SD rats, once daily by gavage: sorafenib 100, erlotinib 70, afatinib 50, osimertinib 60 mg/kg) [%] | KRT1 and Loricrin in tissues ([1]; immunohistochemical staining, successfully modeled rats, modeling drug alone) | Incidence rate Left paw [1, 3] | Incidence rate Right paw [1, 3] | stratum corneum thickness of the paw plantar skin ([1]; successfully modeled rats, modeling drug alone, vs normal rats) | Color ([2]; 25°C/92.5%RH, open, 1 week) | Degradation (%) ([2]; 25°C/92.5%RH, open, 1 week) | Purity (%) ([2]; 25°C/92.5%RH, open, 1 week) | Color ([2]; 60°C, closed, 1 week) | Degradation (%) ([2]; 60°C, closed, 1 week) | Purity (%) ([2]; 60°C, closed, 1 week) | Purity (%) ([2]; Initial) | Degradation (%) ([2]; 25°C/92.5%RH, open, 1 week, listed as crystal form D) | Crystal form ([2]; 60°C, closed, 1 week) | Degradation (%) ([2]; 60°C, closed, 1 week, listed as crystal form D) | Degradation (%) ([2]; 25°C/92.5%RH, open, 1 week, listed as crystal form E) | Degradation (%) ([2]; 60°C, closed, 1 week, listed as crystal form E) | KRT1 and Loricrin in tissues ([1]; rat, in vivo) | stratum corneum thickness of the paw plantar skin ([1]; rat, in vivo)
1 | CN(C)C/C=C/C(=O)Nc1cc2c(Nc3ccc(F)c(Cl)c3)ncnc2cc1O[C@H]1CCOC1 [Afatinib, afatinib, reference compound] | 66.7 | significantly increased | 8/12 (66.7%) | 8/12 (66.7%) | significantly higher than that of normal rats | – | – | – | – | – | – | – | – | – | – | – | – | – | –
2 | NC(=O)[C@H]1CCCc2c1[nH]c1ccc(Cl)cc21 [Crystal form C, (S)-6-chloro-2,3,4,9-tetrahydro-1H-carbazole-carboxamide] | – | – | – | – | – | No change | 0.6 | 99.1 | Changed | 0.1 | 99.6 | 99.7 | – | – | – | – | – | – | –
3 | NC(=O)[C@H]1CCCc2c1[nH]c1ccc(Cl)cc21 [Crystal form D, (S)-6-chloro-2,3,4,9-tetrahydro-1H-carbazole-carboxamide] | – | – | – | – | – | No change | 0.6 | 99.2 | Changed | 1.1 | 98.7 | 99.8 | 0.6 | D+F | 1.1 | – | – | – | –
4 | NC(=O)[C@H]1CCCc2c1[nH]c1ccc(Cl)cc21 [Crystal form E, (S)-6-chloro-2,3,4,9-tetrahydro-1H-carbazole-carboxamide] | – | – | – | – | – | No change | 0.2 | 99.2 | Changed | 3.0 | 96.4 | 99.4 | – | E+F | – | 0.2 | 3.0 | – | –
5 | C#Cc1cccc(Nc2ncnc3cc(OCCOC)c(OCCOC)cc23)c1 [Erlotinib, erlotinib, reference compound] | – | – | – | – | – | – | – | – | – | – | – | – | – | – | – | – | – | significantly increased | significantly higher than that of normal rats
